Among the data in paper PMC12040169 (PLOS Biology, 2025) are viability values, retold here.

The nature of the data set: in vitro. The settings on record: human, hela cells, % viability.

For the compound `CCOc1cc(/C=C2\SC(=S)N(Cc3ccccc3)C2=O)cc(Cl)c1OC(=O)c1ccco1` [CBK265509], the viability at 28.5 h, 10 µM stood at 106%.

For the compound `O=C(NCCc1cccs1)Nc1ccc(Cl)cc1C(F)(F)F` [CBK044825], the viability at 28.5 h, 10 µM stood at 86.1%.

On to `Cc1cc(S(=O)(=O)N(CCC#N)c2ccccc2)c(C)cc1Cl` [CBK043618], for which the viability at 28.5 h, 10 µM was 85.7%.

For `Cc1ccc(-c2nnc(NCc3cnn(C)c3C)o2)c(C)c1` [CBK306166], the viability at 28.5 h, 10 µM was 88.2%.

`O=C1CC2(CCC3C(C(=O)NC4CCCC4)C32)Oc2ccccc21` (stereo not drawn) [CBK284922]: the viability at 28.5 h, 10 µM came out at 97.6%.

In the case of `COc1ccccc1NC(=S)NCCc1ccccn1` [CBK265358], the viability at 28.5 h, 10 µM was found to be 91.2%.

For the compound `O=C1COc2ccccc2C/C=C/CC2(CCCN(C(=O)CN3CCCC3=O)C2)CN1` (stereo not drawn) [CBK292032], the viability at 28.5 h, 10 µM amounted to 98.1%.

Consider `Cc1ccc(Oc2ncccc2NC(=O)CN2CCC(NC(=O)c3ccccc3)CC2)c2c1CCC2` [CBK074715], for which the viability at 28.5 h, 10 µM worked out at 112%.

For `CNS(=O)(=O)c1cccc(C(C)NC(=O)N2CCSCC2)c1` (stereo not drawn) [CBK305825], the viability at 28.5 h, 10 µM is 95.1%.

As for `O=[N+]([O-])c1ccc(Cl)cc1CN1CCN(C/C=C/c2ccccc2)CC1` [CBK261568], the viability at 28.5 h, 10 µM is 106%.

Consider `Cc1c(C(=O)O)sc(S(=O)(=O)N2CCN(C(=O)Cc3ccccc3)CC2)c1C(=O)O` [CBK297148], for which the viability at 28.5 h, 10 µM turned out to be 96.2%.

Turning to `Cn1nc2c(c1C(=O)NCC(C)(C)N1CCCCC1)CCCC2` [CBK281878], the viability at 28.5 h, 10 µM came to 94.4%.

With `CC(=O)Nc1cccc(-n2nnnc2SCc2noc(C)n2)c1` [CBK304599], the viability at 28.5 h, 10 µM worked out at 90.9%.

Turning to `Cc1ccc(-c2nc(C3CCCN(C(=O)NC4CCCCC4)C3)n3ccccc23)cc1` (stereo not drawn) [CBK047241], the viability at 28.5 h, 10 µM was 94.4%.

Regarding `c1cncc(-c2nccnc2NCCCN2CCOCC2)c1` [CBK037286], the viability at 28.5 h, 10 µM is 107%.

Regarding `CN(c1ccccc1)C1CCN(c2nc3c(cnn3C)c(=O)[nH]2)CC1` [CBK305215], the viability at 28.5 h, 10 µM worked out at 96.3%.

Turning to `CCC1CCCCN1C(=O)c1ccc(C(C)(C)C)cc1` (stereo not drawn) [CBK076644], the viability at 28.5 h, 10 µM came to 103%.

Consider `O=C(NC1=NCCS1)c1cc2ccccc2o1` [CBK058927], for which the viability at 28.5 h, 10 µM was 80.8%.

Regarding `O=C(CNS(=O)(=O)Cc1ccccc1[N+](=O)[O-])N1CCOCC1` [CBK042220], the viability at 28.5 h, 10 µM was 82.7%.

On to `O=C(NCc1cccnc1)C1CCCN(c2nc3c(-c4ccccc4)csc3c(=O)[nH]2)C1` (stereo not drawn) [CBK215492], for which the viability at 28.5 h, 10 µM turned out to be 112%.

As to `COC(Cc1nc2ccccc2s1)C(=O)O` (stereo not drawn) [CBK265806], the viability at 28.5 h, 10 µM came to 101%.

For the compound `CCCCN(C)c1c(C)nc2c(OCC(=O)c3ccc(F)cc3)cccn12` [CBK147172], the viability at 28.5 h, 10 µM amounted to 93.1%.

As for `CC(C)Oc1cccc(CNC(=O)c2ccc(C(C)(C)C)[nH]c2=O)c1` [CBK281415], the viability at 28.5 h, 10 µM was 92.2%.

As for `CN(C(=O)CN)c1nc2c(s1)CC(c1ccccc1)CC2` (stereo not drawn) [CBK304298C], the viability at 28.5 h, 10 µM came out at 74.1%.

Turning to `COc1cccc(/C=C2/SC(=S)NC2=O)c1OCCCOc1ccc(C)cc1C` [CBK264441], the viability at 28.5 h, 10 µM came to 94.8%.

In the case of `CC(C)(CO)CNc1cncc(-c2cccnc2)n1` [CBK037881], the viability at 28.5 h, 10 µM worked out at 89.8%.

As to `COC(=O)c1c(NC(=S)NNC(=O)c2nn(C)cc2I)sc2c1CCC2` [CBK267074], the viability at 28.5 h, 10 µM was determined as 97.7%.

Take `CC(C)NC(=O)NC1CCCc2nc(N3CCC(CO)CC3)ncc21` (stereo not drawn) [CBK307002]: the viability at 28.5 h, 10 µM turned out to be 83.3%.

Turning to `CCC(Oc1ccccc1)C(=O)Nc1sc2c(c1C#N)CCCC2` (stereo not drawn) [CBK262091], the viability at 28.5 h, 10 µM stood at 87.5%.

For `CC1CN(c2ccccc2Br)NC1=O` (stereo not drawn) [CBK026500], the viability at 28.5 h, 10 µM is 96.7%.

Take `COC(=O)C1CCCCN1S(=O)(=O)c1cccs1` (stereo not drawn) [CBK051135]: the viability at 28.5 h, 10 µM amounted to 109%.

As to `Cc1noc(C)c1CCC(=O)NCc1cccc(C#N)c1` [CBK305938], the viability at 28.5 h, 10 µM amounted to 108%.

As for `O=C(NCc1ccc2c(c1)OCO2)C1CN(S(=O)(=O)c2ccccc2)CCN1S(=O)(=O)c1ccccc1` (stereo not drawn) [CBK267059], the viability at 28.5 h, 10 µM came out at 102%.

With `c1cnc(-c2ccc3c(c2)OCO3)c(OC2CCCCC2)n1` [CBK106706], the viability at 28.5 h, 10 µM came out at 92.4%.

For the compound `CCc1c(C)nc2c(C(=O)N3CCOCC3)cnn2c1C` [CBK162134], the viability at 28.5 h, 10 µM turned out to be 99.3%.

Turning to `CCOc1cc(NC2CCN(C(=O)C3CCCC(C)(C)C3)CC2)ncn1` (stereo not drawn) [CBK305547], the viability at 28.5 h, 10 µM stood at 80.9%.

`CCc1c(C)nc2ccccc2c1SCCC(=O)N(C)C` [CBK149718T]: the viability at 28.5 h, 10 µM is 99.9%.

As for `O=C(O)c1nc(/N=C/c2ccc(C#Cc3ccccc3)cc2)n[nH]1` [CBK261219], the viability at 28.5 h, 10 µM was found to be 90.3%.

For the compound `O=C(CSc1ncnc2c1cnn2-c1ccccc1)Nc1ccccc1` [CBK269408], the viability at 28.5 h, 10 µM worked out at 96.4%.

As to `O=C(Nc1ccc([C@@H](O)[C@H]2COCC(=O)N2Cc2ccc(F)cc2)cc1)c1cccnc1` [CBK289062], the viability at 28.5 h, 10 µM came out at 93.3%.

On to `O=C(O)c1cccc(N2C(=O)c3cccc4c(Cl)ccc(c34)C2=O)c1` [CBK299836], for which the viability at 28.5 h, 10 µM was 90.3%.

In the case of `CCN(CC)C(=O)CCn1c(-c2ccc(C)nc2)cc2cccnc21` [CBK282150], the viability at 28.5 h, 10 µM was determined as 87.2%.

`Cc1nc(NC(=O)c2ccoc2)sc1C` [CBK296729]: the viability at 28.5 h, 10 µM was 103%.

Regarding `CN(C)c1cc(CNC(=O)c2cc3ccccc3oc2=O)ccn1` [CBK297917], the viability at 28.5 h, 10 µM is 88.8%.

Take `COc1nccnc1OC1CCN(CCCC#N)CC1` [CBK084255]: the viability at 28.5 h, 10 µM amounted to 90%.

Consider `O=[N+]([O-])c1ccc(CN2CCN(C/C=C/c3ccccc3)CC2)o1` [CBK026551], for which the viability at 28.5 h, 10 µM was determined as 85.1%.

`Cc1cc(N2CCOCC2)ccc1NC(=O)CCOc1cccc(Cl)c1` [CBK305724]: the viability at 28.5 h, 10 µM amounted to 102%.

`N#Cc1ccccc1COC(=O)c1cc(-c2ccc(/C=C/c3[nH]c(=O)[nH]c(=O)c3[N+](=O)[O-])o2)ccc1Cl` [CBK268888]: the viability at 28.5 h, 10 µM came out at 111%.

With `CN(C)S(=O)(=O)c1ccc(C(=O)Nc2ccccc2O)cc1` [CBK267809], the viability at 28.5 h, 10 µM is 94.1%.

Consider `Fc1ccc2nc(Nc3nnc(-c4ccco4)o3)sc2c1` [CBK287488], for which the viability at 28.5 h, 10 µM came out at 94.5%.

As for `CS(=O)(=O)CCNC(=O)c1cnc(-c2ccc(F)cc2)c(-c2ccco2)c1` [CBK037505], the viability at 28.5 h, 10 µM is 93.1%.

On to `Cc1cccc(N2CCN(C(=O)CCc3ccsc3)C(C)C2)n1` (stereo not drawn) [CBK304069], for which the viability at 28.5 h, 10 µM was 96.6%.

Regarding `CN(CC(=O)Nc1nnc[nH]1)S(=O)(=O)c1ccc(Br)cc1` [CBK268618], the viability at 28.5 h, 10 µM turned out to be 91.1%.

Consider `Cc1cccc(-c2nc(CN(C)CC(=O)NC(C)C)no2)c1` [CBK305109], for which the viability at 28.5 h, 10 µM is 115%.

With `COC(=O)C1CCN(S(=O)(=O)c2ccccc2[N+](=O)[O-])CC1` [CBK264393], the viability at 28.5 h, 10 µM was found to be 115%.

As to `O=C1CC2(CCN(C(=O)c3ccccn3)CC2)Oc2ccc(Br)cc21` [CBK156443], the viability at 28.5 h, 10 µM was 93.7%.

For `Cc1cnc2[nH]c(C(F)(F)F)c(CN3CCOCC3)c2c1` [CBK284766], the viability at 28.5 h, 10 µM turned out to be 85.7%.

Consider `CN(C)CC(=O)N1CN(C(=O)c2cccc(Br)c2)C(C)(C)C1` [CBK092206C], for which the viability at 28.5 h, 10 µM was 97.4%.

Regarding `CC(=O)Nc1ccc(CNC(=O)CN(C)Cc2cccc(O)c2)cc1` [CBK307660], the viability at 28.5 h, 10 µM came to 84.8%.

In the case of `Cc1nc(C)n(CC2CCCCN2Cc2cn3ccccc3n2)n1` (stereo not drawn) [CBK304008], the viability at 28.5 h, 10 µM came to 111%.

As to `O=C(Cn1cccc2cc(C3CCCNC3)nc1-2)N1CCCC1` (stereo not drawn) [CBK285086], the viability at 28.5 h, 10 µM worked out at 88.7%.

For the compound `OCC1CCCN1c1nccnc1-c1ccoc1` (stereo not drawn) [CBK089057], the viability at 28.5 h, 10 µM was determined as 105%.

Turning to `COc1ccc(C(=O)Nc2nc3ccc(OC)cc3s2)cc1` [CBK287306], the viability at 28.5 h, 10 µM is 96.5%.

Take `O=C(O)[C@H]1CN(C(=O)c2ccco2)C[C@@H]1c1ccc(F)cc1` [CBK283735]: the viability at 28.5 h, 10 µM stood at 105%.

For `COC(=O)CCn1c(=O)c2c(nc3oc(C)c(C)n32)n(C)c1=O` [CBK306033], the viability at 28.5 h, 10 µM is 109%.

For `COc1ccc(NC(=O)CC2Nc3cccc4cccc(c34)NC2=O)cc1` (stereo not drawn) [CBK267561], the viability at 28.5 h, 10 µM amounted to 93.1%.

With `FC(F)(F)c1cccnc1Sc1nc[nH]n1` [CBK115213], the viability at 28.5 h, 10 µM stood at 102%.

With `CCC1c2ccc(C)n2CCN1C(=O)c1cc(-c2ccccn2)n[nH]1` (stereo not drawn) [CBK283225], the viability at 28.5 h, 10 µM stood at 86.4%.

Consider `CC1Cc2cc(C(=O)C3=C(O)C(=O)N(Cc4ccco4)C3c3cccnc3)ccc2O1` (stereo not drawn) [CBK266236], for which the viability at 28.5 h, 10 µM came to 104%.

In the case of `O=C(c1cc(F)c(F)cc1F)N1CCC2(CCN(CCN3CCOCC3)C2)C1` (stereo not drawn) [CBK132145C], the viability at 28.5 h, 10 µM worked out at 102%.

As to `Cn1c2c(c3ccccc31)CCOC21CCN(Cc2ccc(OC(F)F)cc2)CC1` [CBK039975], the viability at 28.5 h, 10 µM was 95.8%.

Regarding `COc1ccc(N2C(=O)C(CC(=O)Nc3ccc(F)cc3)N(Cc3ccc4c(c3)OCO4)C2=O)cc1` (stereo not drawn) [CBK266515], the viability at 28.5 h, 10 µM was 97%.

For the compound `CCN(CC(C)C#N)C(=O)c1cc2ccccc2oc1=O` (stereo not drawn) [CBK305992], the viability at 28.5 h, 10 µM came out at 87.8%.

On to `Cn1c(=O)n(CCN2CCOCC2)c(=O)c2c1nc1n2CCN1c1ccccc1` [CBK269328], for which the viability at 28.5 h, 10 µM came to 95.1%.

For `FC(F)(F)c1ccnc(Sc2ccccn2)n1` [CBK093786], the viability at 28.5 h, 10 µM is 99.3%.

As for `C=CCO[C@@H]1C[C@H]2C(=O)N3CCN(C(=O)NC4CCCCC4)C[C@H]3C(=O)N2C1` [CBK289619], the viability at 28.5 h, 10 µM was determined as 82.5%.

`O=C(Cn1cnc2ccc(F)cc2c1=O)N1CCOC2CCCCC21` (stereo not drawn) [CBK253316]: the viability at 28.5 h, 10 µM amounted to 80.5%.

Turning to `CC(C)Nc1nc2ccccc2nc1OC1CCN(C)C1` (stereo not drawn) [CBK113283], the viability at 28.5 h, 10 µM is 81.1%.

In the case of `CN1CCN(c2cc3ncccc3cc2F)CC1` [CBK066904], the viability at 28.5 h, 10 µM worked out at 105%.

As to `COc1ccc(S(=O)(=O)NC(=O)NCC2CC3C=CC2C3)cc1` (stereo not drawn) [CBK022821], the viability at 28.5 h, 10 µM worked out at 88.7%.

With `CCOC(=O)CNS(=O)(=O)c1cccs1` [CBK044958], the viability at 28.5 h, 10 µM was determined as 93.3%.
